# Patent publication EP4703354A1, “COMPOUND AS CCR6 ANTAGONIST, AND PHARMACEUTICAL COMPOSITION AND USE THEREOF” (Wuhan Createrna Science and Technology Co.,Ltd., priority 2023, dated 2024)
# Legend:
# [1] = in vitro liver microsome metabolic stability, rat; assay type: in vitro ADME; conditions: Rat liver microsomes, 37°C
# Procedure, shortened: (§1)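 Test compound at 1 µM final (100 µM working solution diluted 1:100) incubated at 37°C with liver microsomes in pH 7.4 phosphate buffer with NADP/G6P/G6PDH/MgCl2 regenerating system; sampled 0–30 min, LC-MS/MS vs internal standard. T1/2 = 0.693/k from remaining-fraction decay.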
# [2] = in vitro liver microsome metabolic stability, human; assay type: in vitro ADME; conditions: Human liver microsomes, 37°C
# Procedure, shortened: as §1
# [3] = in vitro liver microsome metabolic stability, mouse; assay type: in vitro ADME; conditions: Mouse liver microsomes, 37°C
# Protocol: Preparation of working solutions for test compounds and standards: An appropriate amount of the compound was accurately weighed and dissolved in a corresponding volume of suitable solvent to prepare 1 mM stock solutions of the test compounds and standards. The stock solutions were then diluted with appropriate solvent to obtain 100 µM working solutions of the test compounds, ensuring that the DMSO content in the working solutions remained below 10%.
# The internal standard compound testosterone (or tolbutamide) and its corresponding solvent, internal standard concentration (200 ng/mL), were selected based on the properties of the test compound.
# • Solution A: 0.1 mol/L K2HPO4 (2.28 g K2HPO4·3H2O was dissolved in 100 mL of double-distilled water); • Solution B: 0.1 mol/L KH2PO4 (1.36 g KH2PO4 was dissolved in 100 mL of double-distilled water); • 80.2 mL of Solution A and 19.8 mL of Solution B were mixed thoroughly, and the pH was adjusted to 7.4.
# 37.5 mg of glycine was weighed, dissolved in 100 mL of ultrapure water, and adjusted to pH 8.0 with NaOH.
# 1.25 mg of glucose-6-phosphate dehydrogenase (400 U/mg) was weighed (the specific amount weighed was calculated based on the activity of the purchased glucose-6-phosphate dehydrogenase), dissolved in 1 mL of glycine buffer to a concentration of 500 U/mL, aliquoted into 20 µL per tube, and stored at -20°C for future use.
# 7.83 mg of NADP, 0.06 mL of D-glucose-6-phosphate (260 mg/mL), and 10.17 mg of MgCl2·6H2O were precisely weighed.
# The mixture was dissolved in 1 mL of pure water. The cofactor ratio composition: NADP 10 mM, D-glucose-6-phosphate 60 mM, MgCl2·6H2O 50 mM.
# The reaction system (taking a 500 µL system as an example) was composed of the following solution ratios: 416.5 µL phosphate buffer, 5 µL compound working solution, 25 µL liver microsomes, 3.5 µL glucose-6-phosphate dehydrogenase, and 50 µL cofactor solution. The total incubation volume could be adjusted according to experimental requirements.
# 416.5 µL of phosphate buffer was taken, 25 µL of liver microsomes, 3.5 µL of glucose-6-phosphate dehydrogenase, and 50 µL of cofactor solution were added, vortexed twice to mix, and preincubated in a 37°C water bath for 5 minutes. Then, 5 µL of the test compound working solution was added, vortexed twice to mix, each time for 2-3 seconds, and placed in a 37°C water bath to initiate the reaction, with two parallel samples set. At 0.5 min, 1 min, 2 min, 5 min, 15 min, and 30 min after the reaction, 50 µL of the mixture was taken and added to centrifuge tubes containing 200 µL of 0°C pre-cooled internal standard working solution to terminate the reaction, vortexed for 1 minute to mix, and centrifuged at 13,000 rpm for 10 minutes in a 4°C pre-cooled high-speed centrifuge. The supernatant was collected for analysis. After the compound was added and vortex-mixed, 50 µL of the mixture was rapidly transferred to a centrifuge tube containing 200 µL of a pre-cooled (0°C) internal standard working solution to terminate the reaction, vortex-mixed for 1 minute, and used as the relative zero-point sample (relative to the standard group). The sample was then placed into a 37°C water bath to initiate the reaction, and timing was started.
# The sample analysis of the test compound was performed using the liquid chromatography-tandem mass spectrometry (LCMS/MS) method. The semi-quantitative determination was performed using the ratio of the analyte peak area to the internal standard peak area. The retention times of the analyte and internal standard, chromatogram acquisition, and chromatogram integration were processed using Analyst software.
# The in vitro elimination rate constant k of the test compound and the control compound was determined by converting the ratio of the peak area of the test compound to the internal standard into the remaining rate, and T1/2 was then calculated according to the following formula. T1/2 = (Ln2)/(k) = (0.693)/(k) [formula] Table 3. […]
# [4] = in vitro liver microsome metabolic stability, beagle dog; assay type: in vitro ADME; conditions: Beagle dog liver microsomes, 37°C
# Procedure, shortened: as §1
# [5] = molecular target: T1, human CCR6 (Homo sapiens, UniProt P51684); assay: human CCR6 calcium flux activity (FLIPR, HEK293 cells stably expressing human CCR6, CCL20 stimulation); assay type: cell-based; conditions: for IC50: HEK293 cells stably expressing human CCR6, EC80 human MIP-3 alpha/CCL20, read-out: CCR6 inhibitory activity, IC50; for CCR6 selectivity: ratio of CXCR2 IC50 to CCR6 IC50
# T1 construct: expressed in transfected cells; host or cells: HEK293
# T1 sequence (P51684 1-374): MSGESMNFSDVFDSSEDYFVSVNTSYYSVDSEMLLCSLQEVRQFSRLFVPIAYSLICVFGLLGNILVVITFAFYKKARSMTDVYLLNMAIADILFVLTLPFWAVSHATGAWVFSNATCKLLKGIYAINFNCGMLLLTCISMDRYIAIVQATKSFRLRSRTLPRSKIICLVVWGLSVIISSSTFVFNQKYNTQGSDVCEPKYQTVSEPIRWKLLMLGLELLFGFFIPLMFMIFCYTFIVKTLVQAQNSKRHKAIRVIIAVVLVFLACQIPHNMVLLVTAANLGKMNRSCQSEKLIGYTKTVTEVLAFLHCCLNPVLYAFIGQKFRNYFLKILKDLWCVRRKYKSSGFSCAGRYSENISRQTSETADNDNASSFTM
# Procedure, shortened: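 Read-out is the RFUMax−RFUMin calcium signal (494/516 nm, 90 s) after EC80 CCL20 addition, fitted four-parameter for IC50. Before agonist, Fluo-4 Direct-loaded cells sat with compound 50 min at 37 °C plus 10 min at room temperature.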
# [6] = in vivo pharmacokinetic study in SD rats; conditions: male, rat, plasma; for bioavailability: 1 mg/kg PO vs 1 mg/kg IV, read-out: Oral bioavailability F (%); for AUC(0-t) / Cmax / half-life: 1 mg/kg
# Procedure, shortened: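 Male SD rats (180-200 g), 3 per route: single fasted oral gavage in 1% Tween 80 or tail-vein IV bolus in 50% PEG400. Orbital blood into EDTA-K2 sampled to 8 h; plasma analysed and PK parameters derived by non-compartmental analysis.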
# [7] = molecular target: T2, human CXCR2 (Homo sapiens, UniProt P25025); assay: human CXCR2 calcium flux activity (FLIPR, HEK293 cells stably expressing human CXCR2, IL-8 stimulation); assay type: cell-based; conditions: HEK293 cells stably expressing human CXCR2, EC80 human IL-8; read-out: CXCR2 inhibitory activity, IC50
# T2 construct: expressed in transfected cells; host or cells: HEK293
# T2 sequence (P25025 1-360): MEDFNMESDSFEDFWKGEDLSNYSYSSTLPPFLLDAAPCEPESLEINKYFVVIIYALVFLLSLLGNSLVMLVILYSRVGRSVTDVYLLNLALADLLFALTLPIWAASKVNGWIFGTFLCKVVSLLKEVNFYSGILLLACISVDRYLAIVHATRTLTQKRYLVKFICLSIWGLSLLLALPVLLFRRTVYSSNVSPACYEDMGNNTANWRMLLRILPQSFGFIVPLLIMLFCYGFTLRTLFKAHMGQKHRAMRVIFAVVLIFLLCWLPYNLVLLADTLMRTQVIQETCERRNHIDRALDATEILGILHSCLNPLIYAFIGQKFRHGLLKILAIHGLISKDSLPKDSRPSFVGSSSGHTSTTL
# Protocol: The activity of the compounds was evaluated using HEK293 cells stably expressing human CXCR2 via the FLIPR platform. A 384-well black cell culture plate (Greiner, 781946) was used, with a seeding density of 20,000 cells/well, and incubated overnight at 37°C in a 5% CO2 incubator. The culture medium in the cell plate wells was removed, and 20 µL of Fluo-4 Direct™ Calcium Assay Buffer (Invitrogen, F10471, Component C), 20 µL of 2× Fluo-4 Direct™ Calcium Assay Reagent (Invitrogen, F10471, Component A) working solution, and 10 µL of 6× test compound working solution were sequentially added to each well. The cell plate was incubated in a 37 °C, 5% CO2 incubator for 50 min, followed by a 10 min incubation at room temperature. Additionally, a 6×EC80 human IL-8 (Sigma, SRP3311) working solution was prepared. After the incubation was completed, 10 µL/well of the 6×EC80 human IL-8 working solution was transferred to the corresponding cell wells using a FLIPR instrument, and the fluorescence signal changes at an excitation wavelength of 494 nm and an emission wavelength of 516 nm were recorded over 130 s. The difference between the maximum fluorescence signal (RFUMax) and the minimum fluorescence signal (RFUMin) was used as the output signal. The compound inhibition rate and the log value of the compound concentration were calculated, and a four-parameter fitting analysis was performed using GraphPad Prism 8 software to obtain the IC50 value of the test compound. Table 1. Inhibitory activity data of compounds against CCR6 and CXCR2
Liver microsome T1-2 (min) Rat [1] [min],Liver microsome T1-2 (min) Human [2] [min],Liver microsome T1-2 (min) Mouse [3] [min],Liver microsome T1-2 (min) Beagle dog [4] [min],SMILES,IC50 [5] [nM],CCR6 selectivity [5],bioavailability [6] [%],AUC(0-t) ([6]; IV) [ng·h/mL],Cmax ([6]; IV) [ng/mL],AUC(0-t) ([6]; PO) [ng·h/mL],Cmax ([6]; PO) [ng/mL],half-life ([6]; PO) [h],IC50 [7] [nM],half-life ([6]; IV) [h]
83.07,572.07,19686.4,220.11,"Cc1cccnc1[C@@H](Nc1c(Nc2ccnc(C(=O)N(C)C)c2O)c(=O)c1=O)[C@]1(C)CCC(F)(F)C1 (single isomer, unassigned) [125D]",–,–,–,–,–,–,–,–,–,–
32.18,343.09,550.74,222.01,Cc1cccnc1[C@@H](Nc1c(Nc2ccnc(C(=O)N(C)C)c2O)c(=O)c1=O)[C@@]1(C)CCC(F)(F)C1 [125C],–,–,–,–,–,–,–,–,–,–
–,–,–,–,"Cc1cccnc1[C@H](Nc1c(Nc2ccnc(C(=O)N(C)C)c2O)c(=O)c1=O)C1(C)CCCC1 [compound 018, (R)-3-hydroxy-N,N-dimethyl-4-((2-(((1-methylcyclopentyl)(3-methylpyridin-2-yl)methyl)amino)-3,4-dioxocyclobut-1-en-1-yl)amino)picolinamide]",11,8363.5,49.1,1160,2240,1710,920,4.3,92000,–
–,–,–,–,"CN(C)C(=O)c1nccc(Nc2c(N[C@@H](c3nc(F)ccc3F)C3(C)CCCC3)c(=O)c2=O)c1O [compound 023, (R)-4-((2-(((3,6-difluoropyridin-2-yl)(1-methylcyclopentyl)methyl)amino)-3,4-dioxocyclobut-1-en-1-yl)amino)-3-hydroxy-N,N-dimethylpicolinamide]",0.9,227.0,30.5,2020,4130,616,335,2.08,204,–
–,–,–,–,"CN(C)C(=O)c1nccc(Nc2c(N[C@@H](c3nc(Cl)ccc3F)C3(C)CCCC3)c(=O)c2=O)c1O [compound 053, (R)-4-((2-(((6-chloro-3-fluoropyridin-2-yl)(1-methylcyclopentyl)methyl)amino)-3,4-dioxocyclobut-1-en-1-yl)amino)-3-hydroxy-N,N-dimethylpicolinamide]",1.5,1163.3,33.1,1800,3890,596,380,2.33,1750,–
–,–,–,–,"CN(C)C(=O)c1nccc(Nc2c(N[C@@H](c3nc(CF)ccc3F)C3(C)CCCC3)c(=O)c2=O)c1O [compound 094, (R)-4-((2-(((3-fluoro-6-(fluoromethyl)pyridin-2-yl)(1-methylcyclopentyl)methyl)amino)-3,4-dioxocyclobut-1-en-1-yl)amino)-3-hydroxy-N,N-dimethylpicolinamide]",1.1,174.73,22.8,1210,4460,276,208,2.18,192,0.37
–,–,–,–,"CN(C)C(=O)c1nccc(Nc2c(N[C@@H](c3nc(C(F)F)ccc3F)C3(C)CCCC3)c(=O)c2=O)c1O [compound 109, (R)-4-((2-(((6-(difluoromethyl)-3-fluoropyridin-2-yl)(1-methylcyclopentyl)methyl)amino)-3,4-dioxocyclobut-1-en-1-yl)amino)-3-hydroxy-N,N-dimethylpicolinamide]",2.4,55.5,61.8,786,3140,485,264,2.07,133,0.5
